Results: patent US12071425B2 (Genentech, Inc., priority 2018, dated 2024)
Where a name gives a salt, the structure may show the parent alone.

These compounds were tested against kinase domain of IRE1 alpha (His-tagged kinase dead construct KR, AA G547-L977, D688N) (Homo sapiens (Human), UniProt O75460, D688N) (assay: IRE1α TR-FRET competition binding assay). Settings: competition with Kinase Tracer 236, 0.1 μM; one hour at room temperature.
Method in brief: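 Sf9-expressed kinase-dead KR construct (0.006 μM final) pre-incubated 1 h at 4° C with Eu anti-His antibody (0.002 μM) in HEPES pH 7.5/MgCl2/Brij/DTT buffer; Kinase Tracer 236 (ATP-competitive probe, 0.1 μM final) added with compound. 1 h at room temperature; tracer displacement read by TR-FRET (665/615 nm).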

Sequence of kinase domain of IRE1 alpha (His-tagged kinase dead construct KR, AA G547-L977, D688N) (O75460 547-977 D688N): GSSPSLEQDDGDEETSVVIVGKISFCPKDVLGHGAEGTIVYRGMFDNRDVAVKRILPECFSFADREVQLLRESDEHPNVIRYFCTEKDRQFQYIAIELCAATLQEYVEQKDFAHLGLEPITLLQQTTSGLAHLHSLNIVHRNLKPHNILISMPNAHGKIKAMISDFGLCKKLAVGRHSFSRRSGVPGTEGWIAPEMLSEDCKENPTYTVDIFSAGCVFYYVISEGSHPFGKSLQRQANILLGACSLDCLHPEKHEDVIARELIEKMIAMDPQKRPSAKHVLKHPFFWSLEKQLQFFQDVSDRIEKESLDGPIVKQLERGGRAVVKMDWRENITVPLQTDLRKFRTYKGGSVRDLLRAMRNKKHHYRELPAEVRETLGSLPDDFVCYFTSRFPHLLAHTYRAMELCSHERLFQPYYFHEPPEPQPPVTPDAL

| Compound | IC50 [nM] |
| --- | --- |
| Cc1cc(CS(=O)(=O)Nc2c(F)cc(Oc3ncccc3-c3ccnc(N[C@@H]4CNC[C@@H](F)C4)n3)c(F)c2F)no1 [Compound 204, 1-(5-methylisoxazol-3-yl)-N-(2,3,6-trifluoro-4-((3-(2-(((3S,5S)-5-fluoropiperidin-3-yl)amino)pyrimidin-4-yl)pyridin-2-yl)oxy)phenyl)methanesulfonamide] | 4.1 |
| N#Cc1ccccc1CS(=O)(=O)Nc1c(F)cc(Oc2ncccc2-c2ccnc(N[C@@H]3CNC[C@@H](F)C3)n2)c(F)c1F [Compound 358] | 0.3 |
| CN(C)CCNc1nccc(-c2cccnc2Oc2ccc(NS(=O)(=O)Cc3ccccc3)c(F)c2F)n1 [Compound 184, N-(4-((3-(2-((2-(dimethylamino)ethyl)amino)pyrimidin-4-yl)pyridin-2-yl)oxy)-2,3-difluorophenyl)-1-phenylmethanesulfonamide] | 57 |
| O=S(=O)(Nc1ccc(Oc2ncccc2-c2ccnc(N[C@H]3CCCNC3)n2)c(F)c1F)c1ccc(OC(F)(F)F)cc1 [Compound 223, (S)-N-(2,3-difluoro-4-((3-(2-(piperidin-3-ylamino)pyrimidin-4-yl)pyridin-2-yl)oxy)phenyl)-4-(trifluoromethoxy)benzenesulfonamide] | 26 |
| CCC(F)(F)CS(=O)(=O)Nc1c(F)cc(Oc2ncccc2-c2ccnc(N[C@H]3CCCNC3)n2)c(F)c1F [Compound 194, (S)-2,2-difluoro-N-(2,3,6-trifluoro-4-((3-(2-(piperidin-3-ylamino)pyrimidin-4-yl)pyridin-2-yl)oxy)phenyl)butane-1-sulfonamide] | 4 |
| O=S(=O)(CCC(F)(F)F)Nc1cc(F)c(Oc2ncccc2-c2ccnc(N[C@H]3CCCNC3)n2)cc1F [Compound 109, (S)-N-(2,5-difluoro-4-((3-(2-(piperidin-3-ylamino)pyrimidin-4-yl)pyridin-2-yl)oxy)phenyl)-3,3,3-trifluoropropane-1-sulfonamide hydrochloride] | 26 |
| O=S(=O)(CC1CCC1(F)F)Nc1ccc(Oc2ncccc2-c2ccnc(N[C@H]3CCCNC3)n2)c(F)c1F (stereo partly drawn) [Compound 192, N-(2,3-difluoro-4-((3-(2-(((S)-piperidin-3-yl)amino)pyrimidin-4-yl)pyridin-2-yl)oxy)phenyl)-1-(2,2-difluorocyclobutyl)methanesulfonamide hydrochloride] | 9.7 |
| O=C(Nc1ccc(Oc2ncccc2-c2ccnc(N[C@H]3CCCNC3)n2)c(F)c1F)C1CC12CC2 (single isomer, unassigned) [Compound 150, hydrochloride] | 300 |
| CC(F)C1CNCC(Nc2nccc(-c3cccnc3Oc3cc(F)c(NS(=O)(=O)Cc4ccccc4)c(F)c3F)n2)C1 (single isomer, unassigned) [Compound 348, 1-Phenyl-N-(2,3,6-trifluoro-4-((3-(2-((5-(1-fluoroethyl)piperidin-3-yl)amino)pyrimidin-4-yl)pyridin-2-yl)oxy)phenyl)methanesulfonamide] | 0.2 |
| CCCS(=O)(=O)Nc1ccc(Cl)c(Oc2ncccc2-c2ccnc(N[C@H]3CCCNC3)n2)c1F [Compound 143, (S)—N-(4-Chloro-2-fluoro-3-((3-(2-(piperidin-3-ylamino)pyrimidin-4-yl)pyridin-2-yl)oxy)phenyl)propane-1-sulfonamide hydrochloride] | 34 |
| O=C(Nc1ccc(Oc2ncccc2-c2ccnc(N[C@@H]3CNC[C@@H](F)C3)n2)cc1)Nc1cccc(C(F)(F)F)c1 [Compound 276, 1-(4-((3-(2-(((3S,5S)-5-Fluoropiperidin-3-yl)amino)pyrimidin-4-yl)pyridin-2-yl)oxy)phenyl)-3-(3-(trifluoromethyl)phenyl)urea] | 180 |
| Cc1c(Oc2ncccc2-c2ccnc(N[C@@H]3CNC[C@H](C)C3)n2)cc(F)c(NS(=O)(=O)Cc2ccccc2)c1F [Compound 164, N-(2,6-Difluoro-3-methyl-4-((3-(2-(((3S,5R)-5-methyl-3-piperidyl)amino)pyrimidin-4-yl)-2-pyridyl)oxy)phenyl)-1-phenyl-methanesulfonamide] | 4 |
| NCCNc1nccc(-c2cccnc2Oc2ccc(NS(=O)(=O)Cc3ccccc3)c(F)c2F)n1 [Compound 171, N-(4-((3-(2-((2-aminoethyl)amino)pyrimidin-4-yl)pyridin-2-yl)oxy)-2,3-difluorophenyl)-1-phenylmethanesulfonamide] | 180 |
| Cn1cc(S(=O)(=O)Nc2ccc(Oc3ncccc3-c3ccnc(N[C@H]4CCCNC4)n3)c(F)c2F)cn1 [Compound 222, (S)-N-(2,3-difluoro-4-((3-(2-(piperidin-3-ylamino)pyrimidin-4-yl)pyridin-2-yl)oxy)phenyl)-1-methyl-1H-pyrazole-4-sulfonamide] | 240 |
| O=S(=O)(Cc1ccccc1)Nc1c(F)cc(Oc2ncccc2-c2ccnc(CC3CCCNC3)n2)c(F)c1F (single isomer, unassigned) [Compound 198, 1-Phenyl-N-(2,3,6-trifluoro-4-((3-(2-(3-piperidylmethyl)pyrimidin-4-yl)-2-pyridyl)oxy)phenyl)methanesulfonamide] | 1300 |
| O=S(=O)(Nc1c(F)cc(Oc2ncccc2-c2ccnc(N[C@@H]3CNC[C@@H](F)C3)n2)c(F)c1F)C1CCCC1 [Compound 369, N-(2,3,6-Trifluoro-4-((3-(2-(((3S,5S)-5-fluoropiperidin-3-yl)amino)pyrimidin-4-yl)pyridin-2-yl)oxy)phenyl)cyclopentanesulfonamide] | 1.2 |
| O=S(=O)(Cc1ccccn1)Nc1ccc(Oc2ncccc2-c2ccnc(N[C@H]3CCCNC3)n2)c(F)c1F [Compound 238, (S)—N-(2,3-Difluoro-4-(3-(2-(piperidin-3-ylamino)pyrimidin-4-yl)pyridin-2-yloxy)phenyl)-1-(pyridin-2-yl)methanesulfonamide] | 14 |
| Cc1ccc(CS(=O)(=O)Nc2cc(C)c(Oc3ncccc3-c3ccnc(N[C@@H]4CNC[C@@](C)(F)C4)n3)c(F)c2F)cc1 [Compound 297, N-(2,3-Difluoro-4-((3-(2-(((3S,5S)-5-fluoro-5-methylpiperidin-3-yl)amino)pyrimidin-4-yl)pyridin-2-yl)oxy)-5-methylphenyl)-1-(p-tolyl)methanesulfonamide] | 0.28 |
| CCCS(=O)(=O)Nc1cc(C)c(Oc2ncccc2-c2ccnc(N[C@H]3CC[C@H](N)CC3)n2)c(F)c1 [Compound 118, N-(4-((3-(2-(((1r,4r)-4-aminocyclohexyl)amino)pyrimidin-4-yl)pyridin-2-yl)oxy)-3-fluoro-5-methylphenyl)propane-1-sulfonamide hydrochloride] | 47 |
| O=S(=O)(Nc1ccc(Oc2ncccc2-c2ccnc(N[C@H]3CCCNC3)n2)c(F)c1F)C1c2ccccc2-c2ccccc21 [Compound 381, (S)—N-(2,3-Difluoro-4-((3-(2-(piperidin-3-ylamino)pyrimidin-4-yl)pyridin-2-yl)oxy)phenyl)-9H-fluorene-9-sulfonamide] | 1 |
| O=S(=O)(Cc1ccccc1)Nc1c(F)cc(Oc2ncccc2-c2ccnc(N[C@@H]3CNC[C@H](CF)C3)n2)c(F)c1F [Compound 262, 1-Phenyl-N-(2,3,6-trifluoro-4-((3-(2-(((3S,5R)-5-(fluoromethyl)piperidin-3-yl)amino)pyrimidin-4-yl)pyridin-2-yl)oxy)phenyl)methanesulfonamide] | 0.25 |
| O=S(=O)(Cc1ccncc1)Nc1c(F)cc(Oc2ncccc2-c2ccnc(N[C@@H]3CNC[C@@H](F)C3)n2)c(F)c1F [Compound 359] | 0.3 |
| O=S(=O)(Cc1ccc(F)cc1)Nc1ccc(Oc2ncccc2-c2ccnc(N[C@H]3CCCNC3)n2)c(F)c1F [Compound 235, (S)-N-(2,3-difluoro-4-(3-(2-(piperidin-3-ylamino)pyrimidin-4-yl)pyridin-2-yloxy)phenyl)-1-(4-fluorophenyl)methanesulfonamide] | 4 |
| O=S(=O)(Cc1c(F)cccc1F)Nc1c(F)cc(Oc2ncccc2-c2ccnc(N[C@@H]3CNC[C@@H](F)C3)n2)c(F)c1F [Compound 363, 1-(2,6-Difluorophenyl)-N-[2,3,6-trifluoro-4-[[3-[2-[[(3S,5S)-5-fluoro-3-piperidyl]amino]pyrimidin-4-yl]-2-pyridyl]oxy]phenyl]methanesulfonamide] | 0.2 |
| O=S(=O)(CC1(F)CC1)Nc1c(F)cc(Oc2ncccc2-c2ccnc(N[C@@H]3CNC[C@@H](F)C3)n2)c(F)c1F [Compound 261, 1-(l-Fluorocyclopropyl)-N-(2,3,6-trifluoro-4-((3-(2-(((3S,5S)-5-fluoropiperidin-3-yl)amino)pyrimidin-4-yl)pyridin-2-yl)oxy)phenyl)methanesulfonamide] | 3.5 |
| O=S(=O)(Cc1ccccc1F)Nc1c(F)cc(Oc2ncccc2-c2ccnc(NC3CNCC(C4CC4)C3)n2)c(F)c1F (single isomer, unassigned) [Compound 325, N-(4-((3-(2-((5-Cyclopropylpiperidin-3-yl)amino)pyrimidin-4-yl)pyridin-2-yl)oxy)-2,3,6-trifluorophenyl)-1-(2-fluorophenyl)methanesulfonamide] | 22 |
| C[C@H]1CC[C@H](Nc2nccc(-c3cccnc3Oc3cc(F)c(NS(=O)(=O)Cc4ccccc4)c(F)c3F)n2)CN1 [Compound 257, 1-Phenyl-N-(2,3,6-trifluoro-4-((3-(2-(((3S,6S)-6-methylpiperidin-3-yl)amino)pyrimidin-4-yl)pyridin-2-yl)oxy)phenyl)methanesulfonamide] | 24 |
| Cc1cc(NS(=O)(=O)Cc2c(F)cccc2F)c(F)c(F)c1Oc1ncccc1-c1ccnc(N[C@@H]2CNC[C@@H](F)C2)n1 [Compound 283, N-(2,3-Difluoro-4-((3-(2-(((3S,5S)-5-fluoropiperidin-3-yl)amino)pyrimidin-4-yl)pyridin-2-yl)oxy)-5-methylphenyl)-1-(2,6-difluorophenyl)methanesulfonamide] | 0.41 |
